Reference: patent US10537611B2, “Methods of treating lung cancer” (Five Prime Therapeutics, Inc., priority 2011, dated 2020)

Key:
[1] = Histological analysis of 55 tissues in rats; type: in vivo, rat; conditions: high-dose
Method: At the 200 mg/kg/qwk dose the maximal plasma concentration of the drug was 3.6 and 4.2 mg/ml for female and male rats, respectively (FIG. 18A).

HEC-1B xenograft model = test: HEC-1B xenograft tumor growth inhibition; type: in vivo, mouse; conditions: Endometrial HEC-1B; IP 15 mg/kg BIW; non-amplified; P < 0.05
Method: (§1) Percentage tumor growth inhibition by FGFR1-ECD.339-Fc was determined by area-under-the-curve (AUC) analysis of xenograft growth curves treated with FGFR1-ECD.339-Fc compared to albumin control. […] The difference in FGFR1-ECD.339-Fc-mediated xenograft inhibition between FGFR1 gene amplified and non-amplified lung cancer xenograft models was statistically significant (P=0.0333).
Also shown in Table 5 are the dosing schedule for FGFR1-ECD.339-Fc in a mouse xenograft model, the percent tumor growth inhibition (TGI (%)) and the statistical significance of the tumor growth inhibition (P Value), as well as whether the FGFR1 gene is amplified in the cell line.
(§2) An exemplary xenograft experiment is as follows. For Caki-1 and MSTO-211H, five million cells were implanted subcutaneously over the right flank of SCID mice (N=10 per group). […] Representative tumor growth curves are shown for a renal cancer, Caki-1, (A), and mesothelioma, MSTO-211H, (B) xenograft cancer model. […] In the MSTO-211H mesothelioma model, FGFR1-ECD.339-Fc administration reduced tumor growth (FIG. 16b) by 64% (P<0.0001).

[2] = test system: lung cancer cell lines without FGFR1 gene amplification; test: CellTiter-Glo cell number, non-amplified lung cancer cell lines (average); type: cell-based, human; conditions: averaged across all FBS concentrations, vs control ECD-Fc
Method: (§3) To determine the impact of FGFR1-ECD.339-Fc on lung cancer cell lines in tissue culture, cells were plated in a Microtest™ 96-well tissue culture plate (Becton Dickenson, Franklin Lakes, N.J.) at a density of 5×10^3 cells/well in medium containing 10%, 1% or 0.1% FBS in the presence or absence of 15 μg/ml FGFR1-ECD.339-Fc (SEQ ID NO: 6) or an unrelated ECD-Fc fusion protein (as a negative control). Plates were incubated at 37° C. at 5% CO2 for 4 days and then assayed to determine the impact of FGFR1-ECD.339-Fc on cell number and proliferation.
(§4) To determine cell number the CellTiter-Glo® Luminescent Cell Viability Assay (Promega, Madison, Wis.) was employed. CellTiter-Glo® is a homogeneous method of determining the number of viable cells in culture based on quantitation of the ATP present, an indicator of metabolically active cells. In brief, CellTiter-Glo® Reagent was added to each well of the tissue culture plate at a volume equal to the volume of cell culture medium present in each well (100 μl), the contents mixed for 2 minutes on an orbital shaker to induce cell lysis and then the plate incubated for 10 minutes at room temperature. Luminescence was then determined on an EnVision™ Multilabel Plate Reader (PerkinElmer, Boston, Mass.) with a 0.2 second integration time. Results were expressed as relative light units (RLU)/well. […]

[3] = test system: VEGF-induced proliferation of HUVEC cells; test: VEGF-A induced HUVEC proliferation; type: cell-based, human; conditions: 10 μg/ml; 15 ng/ml VEGF-A165; 3 days, CellTiter-Glo
Method: To determine whether FGFR1-ECD.339-Fc blocks VEGF-induced proliferation of endothelial cells, HUVEC cells (Life Technologies, Grand Island, N.Y.) were seeded at a density of 4×10^3 cells/well in basal media (Medium 200 (Life Technologies) with 2% heat inactivated FBS) and stimulated with either 10 ng/ml FGF2 (R&D Systems, Minneapolis, Minn.) or 15 ng/ml VEGF-A165 (R&D Systems, Minneapolis, Minn.) either in the presence of absence of 10 μg/ml FGFR1-ECD.339-Fc. HUVEC cell proliferation was determined 3 days post-stimulation using CellTiter-Glo® Luminescent Cell Viability Assay.

[4] = test system: lung cancer cell lines with FGFR1 gene amplification; test: CellTiter-Glo cell number, FGFR1 gene amplified lung cancer cell lines (average); type: cell-based, human; conditions: averaged across all FBS concentrations; vs control ECD-Fc; four FGFR1 amplified lines
Method: as §3, §4

NCI-H358 xenograft model = test: NCI-H358 xenograft tumor growth inhibition; type: in vivo, mouse; conditions: Lung NCI-H358; IP 15 mg/kg BIW; non-amplified; P ns
Description: The impact of FGFR1-ECD.339-Fc on tumor growth was compared between FGFR1 gene amplified and non-amplified lung cancer xenograft models. Lung cell lines without FGFR1-amplification examined in this experiment were as follows: A549, NCI-H460, NCI-H226, NCI-H2126, NCI-H441, NCI-H358, NCI-H522 and Colo699. Non-amplified cell lines were purchased from ATTC (Manassas, Va.) and cultured according to supplier instructions. Lung cancer xenograft models using non-FGFR1 gene amplified cell lines were carried out substantially as described in Example 2.
as §1

Caki-1 xenograft model = test: Caki-1 renal cell carcinoma xenograft tumor growth inhibition; type: in vivo, mouse; conditions: Renal Caki-1, IV 10 mg/kg BIW, 6 weeks, non-amplified, P < 0.001
Description: as §2

[5] = test system: VEGF-A induced angiogenesis; test: Matrigel plug assay, VEGF-A induced angiogenesis; type: in vivo, mouse; conditions: C57BL/6 mice; 15 or 45 mg/kg
Method: Recombinant human FGF-2 (final concentration 250 ng/ml; Peprotech) and/or recombinant human VEGF-A (final concentration 100 ng/ml; Peprotech) were added to matrigel (BD Biosciences, Franklin Lakes, N.J.) with sodium heparin (2 units/ml; Sigma). FGF-2 and/or VEGF-A containing matrigel plugs (one per animal) were implanted subcutaneously in the abdomen region of C57BL/6 mice (Charles River, Wilmington, Mass.). FGFR1-ECD.339-Fc was administered by tail vein injection on days 1, 4, and 7 post-matrigel implantation. On day 9, plugs were excised and processed for hematoxylin and eosin (H&E) staining. Digital images of the stained matrigel sections were generated using a Retiga 2000R digital camera (QImaging, Burnaby, BC). Image analysis was performed using Image-Pro Plus 5.1 (Media Cybernetics Inc., Silver Spring, Md.). Neovascularization was defined as the cellular response in the Matrigel plugs, consisting of newly formed blood vessels and migrated cells.

## FGFR1-ECD.339-Fc: human FGFR1 extracellular domain ending at amino acid 339 fused to an Fc; SEQ ID NO: 6 (mature form), SEQ ID NO: 5 with signal peptide
[1]
  histological changes (hyperphosphatemia-related calcium-phosphorus deposition): failed to reveal any changes
HEC-1B xenograft model
  TGI (%): 30%
[2]
  average decrease in cell number (CellTiterGlo RLU): 9.33%
[3]
  VEGF-induced proliferation of HUVECs: did not block
[4]
  average reduction in cell number (CellTiterGlo RLU): 46.25%
NCI-H358 xenograft model
  TGI (%): 0%
Caki-1 xenograft model
  TGI (%): 81%
[5]
  in vivo angiogenesis, matrigel plug with VEGF-A only: completely blocked
